Source: patent publication US20240261443A1, “COMPOUNDS AND COMPOSITIONS USEFUL AS RADIOTRACERS FOR IMAGING OF REACTIVE OXIDATIVE SPECIES” (Wake Forest University Health Sciences, priority 2019, published 2024)

Assays:
Assay type in all cases: cell-based, human
SCC-61 cell line (HNSCC) = experiment: MTT cytotoxicity IC50 assay, SCC-61; conditions: Homo sapiens, SCC-61, MTT
Description: (§1) The cells were seeded at density 5×10^3 cells/well. After 24 h pre-incubation period, cells were treated with 0.01 mM to 2.0 mM of freshly prepared KS1 and KS2 along with ascorbate (n=3) for 48 h. 0.2% of DMSO served as vehicle control. After 48 h, the solutions were removed from all plates and MTT assays performed following the published protocols. IC50 values are presented as mean±SD from at least three independent experiments.
There is growing evidence for a therapeutic role of ascorbate against several cancers (Creagan et al., Failure of High-Dose Vitamin C (Ascorbic Acid) Therapy to Benefit Patients with Advanced Cancer. New England Journal of Medicine 1979, 301 (13), 687-690; Chen et al., Pharmacologic ascorbic acid concentrations selectively kill cancer cells: action as a pro-drug to deliver hydrogen peroxide to tissues. Proceedings of the National Academy of Sciences of the United States of America 2005, 102 (38), 13604-13609; Prasad et al., High Doses of Multiple Antioxidant Vitamins: Essential Ingredients in Improving the Efficacy of Standard Cancer Therapy. Journal of the American College of Nutrition 1999, 18 (1), 13-25). Pharmacologic doses of ascorbate (oral and/or intravenous) could increase the effectiveness of cancer chemotherapy in many solid cancer therapies (López-Lizaro, Dual role of hydrogen peroxide in cancer: Possible relevance to cancer chemoprevention and therapy. Cancer Letters 2007, 252 (1), 1-8; Li et al., New Developments and Novel Therapeutic Perspectives for Vitamin C. The Journal of Nutrition 2007, 137 (10), 2171-2184; Klimant et al., Intravenous vitamin C in the supportive care of cancer patients: a review and rational approach. Current Oncology 2018, 25 (2), 139-148. The primary objective of this experiment was to determine the cytotoxic effects of KS1 at pharmacological concentrations. Cancer cell lines were selected based on their high ROS implications. […] These cell lines have been studied extensively with ascorbic acid treatments (Schoenfeld et al., O(2)(·−) and H(2)O(2)-Mediated Disruption of Fe Metabolism Causes the Differential Susceptibility of NSCLC and GBM Cancer Cells to Pharmacological Ascorbate. Cancer Cell 2017, 31 (4), 487-500.e8; Chen et al., Modulators of Redox Metabolism in Head and Neck Cancer. Antioxidants & Redox Signaling 2017, 29 (16), 1660-1690; Khandrika et al., Oxidative stress in prostate cancer. Cancer Lett 2009, 282 (2), 125-136.

[1] = tested on: SCC-61, G48, MD3-MB-231 and PC3 cancer cell lines; experiment: MTT assay, potency versus ascorbate across patient-derived cancer cell lines; conditions: Example 13; SCC-61, PC3, and MD3-MB-231 cells
Description: as §1
There is growing evidence for a therapeutic role of ascorbate against several cancers (Creagan et al., Failure of High-Dose Vitamin C (Ascorbic Acid) Therapy to Benefit Patients with Advanced Cancer. New England Journal of Medicine 1979, 301 (13), 687-690; Chen et al., Pharmacologic ascorbic acid concentrations selectively kill cancer cells: action as a pro-drug to deliver hydrogen peroxide to tissues. Proceedings of the National Academy of Sciences of the United States of America 2005, 102 (38), 13604-13609; Prasad et al., High Doses of Multiple Antioxidant Vitamins: Essential Ingredients in Improving the Efficacy of Standard Cancer Therapy. Journal of the American College of Nutrition 1999, 18 (1), 13-25). […]

SCC-61 and rSCC-61 cells = experiment: [18F]KS1 in vitro cell uptake in HNSCC cells
Description: ROS efficacy was evaluated in two tumor cell lines: (1)SCC-61 and rSCC-61 cells (HNSCC) (FIG. 5), and (2) PC3 (PCa) cell lines under normoxic and hypoxic conditions (FIG. 6) following previously published protocols by our group (Sai et al., Peptide-based PET imaging of the tumor restricted IL13RA2 biomarker. Oncotarget 2017, 5; Yamamoto et al., Correlation of 18F-FLT and 18F-FDG uptake on PET with Ki-67 immunohistochemistry in non-small cell lung cancer. European Journal of Nuclear Medicine and Molecular Imaging 2007, 34 (10), 1610-1616; Solingapuram Sai et al., Radiolabeling and initial biological evaluation of [18F]KBM-1 for imaging RAR-α receptors in neuroblastoma. Bioorganic & Medicinal Chemistry Letters 2017, 27 (6), 1425-1427). Several ROS blockers including fresh solution of non-radioactive compounds KS1, KS2, SOD (10 μM) in the cell media were added to the seeded tumor cells 1.0 h prior to radiotracer addition (n=6 per blocker). All the cells were then treated with [^18F]KS1 (2.0 μCi/well, UV mass=0.4 μg/mL and S.A=3100 mCi/μmol) and incubated for 60 min (n=6) at 37° C. All the cells (both with and without blockers) were washed and lysed with lysate buffer solution. Lysate samples from each well were collected for gamma counting.
Similarly, in another experiment, human PCa-PC3 cells were cultured under normoxic (˜21% O2) or hypoxic (1% O2) conditions for 48 h. Thereafter, similar to HNSCC cells (detailed above) all assay steps including blocker treatment, radiotracer addition, incubations, washings and lysis were carried out under normoxic or hypoxic conditions. All hypoxia experiments were performed in a hypoxia chamber (Biospherix X3 Xvivo system). Plates without radioactivity were used as controls. Additional aliquots were taken from each well to measure protein concentration. The counts per minute values of each well were normalized to the amount of radioactivity added to each well and was expressed as percent uptake relative to the control condition. The data were expressed as % ID/mg of protein present in each well.
We reported the basic in vitro cell uptake assay of [^18F]KS1 in PC3 and SCC-61 cell lines using KS1 and ascorbate as blockers (Solingapuram Sai et al., Initial biological evaluations of 18F-KS1, a novel ascorbate derivative to image oxidative stress in cancer. EJNMMI Research 2019, 9 (1), 43), following previously published protocols by our group (Sai, et al., Peptide-based PET imaging of the tumor restricted IL13RA2 biomarker. Oncotarget 2017, 8 (31), 50997-51007; Solingapuram Sai et al., Radiolabeling and initial biological evaluation of [(18)F]KBM-1 for imaging RAR-α receptors in neuroblastoma. Bioorganic & medicinal chemistry letters 2017, 27 (6), 1425-1427; Sattiraju et al., IL13RA2 targeted alpha particle therapy against glioblastomas. Oncotarget 2017, 8 (26), 42997-43007). Here we report complete cell uptake of [^18F]KS1 in SCC-61 and rSCC-61 cell lines of HNSCC using several ROS blocking agents including ascorbate, SOD, catalase, DHE, and non-radioactive compounds KS1 ([…]) and few ROS inducers including doxorubicin and ferritin. These agents were added in the cell media to the seeded tumor cells 1.0 h prior to radiotracer addition (n=6 per blocker). The y counts per minute values of each well were normalized to the amount of radioactivity added to each well and the protein concentration in the well and expressed as percent uptake relative to the control condition. The data were expressed as % ID/mg of protein present in each well. […]

SMILES | IC50 (SCC-61 cell line (HNSCC); Example 7, 48 h) | IC50 (SCC-61 cell line (HNSCC); Example 13) | selectivity (potency) versus ascorbate [1] | uptake increase with ROS inducer doxorubicin (SCC-61 and rSCC-61 cells; Example 8) | radioactive uptake in SCC-61 cells compared to rSCC-61 uptake (SCC-61 and rSCC-61 cells; Example 8, 60 min, 37° C.) | uptake blocked by nonradioactive KS1 (SCC-61 and rSCC-61 cells; Example 8, KS1 10 μM added 1.0 h prior) | uptake blocked by SOD (SCC-61 and rSCC-61 cells; Example 8, SOD 10 μM added 1.0 h prior) | radioactive uptake in SCC-61 cells compared to rSCC-61 uptake (SCC-61 and rSCC-61 cells; Example 14) | radioactive uptake increased by ROS-inducer Dox (SCC-61 and rSCC-61 cells; Example 14) | radioactive uptake increased by ferritin (SCC-61 and rSCC-61 cells; Example 14) | radioactive uptake inhibited by catalase (SCC-61 and rSCC-61 cells; Example 14) | uptake in SCC-61 cells blocked by nonradioactive KS1 (SCC-61 and rSCC-61 cells; Example 14, KS1 (100 PM) added 1.0 h prior) | uptake in SCC-61 cells blocked by SOD (SCC-61 and rSCC-61 cells; Example 14, added 1.0 h prior) | uptake in SCC-61 cells blocked by ascorbate (SCC-61 and rSCC-61 cells; Example 14, added 1.0 h prior)
O=C1O/C(=C/CCl)C(O)=C1OCc1ccc(OCCF)cc1 [KS1, (E)-5-(2-chloroethylidene)-3-(4-(2-fluoroethoxy)benzyloxy)-4-hydroxyfuran-2(5H)-one] | 288 µM | 718 µM | 1.6 to 2.5 fold | – | – | – | – | – | – | – | – | – | – | –
O=C1O/C(=C/CCl)C(O)=C1OCc1ccc(OCC[18F])cc1 [[^18F]KS1] | – | – | – | ~30% | ~1.5 fold | ~40% | ~60% | ~3 fold | ~20% | ~32% | ~90% | ~70% | ~65% | ~65%
